According to patent US12655116B2, “Substituted isophthalic acid diamides” (Bayer Aktiengesellschaft, priority 2020, dated 2026):

Tests used:
PHBPU [1] = assay: Post-emergence herbicidal action against PHBPU; format: in vivo, Pharbitis purpurea; settings: Ipomoea purpurea, 504 h; for pest or weed control at 80 g/ha: dosage 80 g/ha; for pest or weed control at 20 g/ha: dosage 20 g/ha
Procedure, shortened: (§1)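 A WP or EC formulation diluted in water with 0.2% wetting agent was sprayed at 600 to 800 l/ha onto one-leaf-stage plants grown in sandy loam. About 3 weeks later, action was rated visually in percent, 100% being dead plants.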

LOLRI = assay: Pre-emergence herbicidal action against LOLRI; format: in vivo, Lolium rigidum; settings: Lolium rigidum, 504 h
Procedure, shortened: (§2)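 Greenhouse pots of sandy loam held seeds covered with soil, onto which the compound was applied before emergence. An aqueous suspension or emulsion of WP or EC was used at 600 to 800 l/ha with 0.2% wetting agent. Percent damage was judged visually at 3 weeks.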

DIGSA [2] = assay: Post-emergence herbicidal action against DIGSA; format: in vivo, Digitaria sanguinalis; settings: Digitaria sanguinalis, 504 h
Procedure, shortened: as §1

ABUTH [3] = assay: Pre-emergence herbicidal action against ABUTH; format: in vivo, Abutilon theophrasti; settings: Abutilon theophrasti, 504 h; for pest or weed control at 80 g/ha: scored visually after 3 weeks vs untreated controls (100% = plants have died, 0% = like control plants); for pest or weed control at 320 g/ha: Dosage: 320 g/ha, scored visually after 3 weeks; for pest or weed control at 320 g/ha / pest or weed control at 20 g/ha: 100% = plants have died, 0% = like control plants; for pest or weed control at 20 g/ha: dosage 20 g/ha, scored visually after 3 weeks vs untreated controls, read-out: Pre-emergence action against ABUTH (herbicidal activity in percent)
Procedure, shortened: as §2

DIGSA [4] = assay: Pre-emergence herbicidal action against DIGSA; format: in vivo, Digitaria sanguinalis; settings: Digitaria sanguinalis, 504 h; for pest or weed control at 80 g/ha: dosage 80 g/ha; for pest or weed control at 320 g/ha: dosage 320 g/ha; for pest or weed control at 20 g/ha: dosage 20 g/ha
Procedure, shortened: as §2

ABUTH [5] = assay: Post-emergence herbicidal action against ABUTH; format: in vivo, Abutilon theophrasti; settings: Abutilon theophrasti, 504 h, visual assessment about 3 weeks after treatment vs untreated controls; for pest or weed control at 20 g/ha: dosage 20 g/ha; for pest or weed control at 80 g/ha: dosage 80 g/ha; for pest or weed control at 5 g/ha: dosage 5 g/ha
Procedure, shortened: as §1

PHBPU [6] = assay: Pre-emergence herbicidal action against PHBPU; format: in vivo, Pharbitis purpurea; settings: Ipomoea purpurea, 504 h; for pest or weed control at 80 g/ha: dosage 80 g/ha
Procedure, shortened: as §2

| SMILES | pest or weed control at 80 g/ha (PHBPU [1]) | pest or weed control at 320 g/ha (LOLRI) | pest or weed control at 20 g/ha (DIGSA [2]) | pest or weed control at 80 g/ha (DIGSA [2]) | pest or weed control at 80 g/ha (ABUTH [3]) | pest or weed control at 320 g/ha (ABUTH [3]) | pest or weed control at 80 g/ha (DIGSA [4]) | pest or weed control at 320 g/ha (DIGSA [4]) | pest or weed control at 20 g/ha (ABUTH [5]) | pest or weed control at 80 g/ha (ABUTH [5]) | pest or weed control at 20 g/ha (PHBPU [1]) | pest or weed control at 80 g/ha (LOLRI) | pest or weed control at 80 g/ha (PHBPU [6]) | pest or weed control at 5 g/ha (DIGSA [2]) | pest or weed control at 20 g/ha (ABUTH [3]) | pest or weed control at 20 g/ha (DIGSA [4]) | pest or weed control at 5 g/ha (ABUTH [5]) | pest or weed control at 20 g/ha (PHBPU [6]; dosage 20 g/ha) | pest or weed control at 5 g/ha (PHBPU [1]; dosage 5 g/ha) |
| --- | --- | --- | --- | --- | --- | --- | --- | --- | --- | --- | --- | --- | --- | --- | --- | --- | --- | --- | --- |
| CNC(=O)c1c(C(F)(F)F)ccc(C(=O)Nc2nnnn2C)c1SC [Example 1-81] | 80% | 80% | 80% | 90% | 100% | 100% | 100% | 100% | 80% | 90% | – | – | – | – | – | – | – | – | – |
| CCNC(=O)c1c(C(F)F)ccc(C(=O)Nc2nnnn2C)c1Cl [Example 1-148] | – | 90% | 90% | 90% | 100% | 100% | 100% | 100% | 90% | 90% | – | – | – | – | – | – | – | – | – |
| CCc1c(C(=O)Nc2nnnn2C)ccc(C(F)(F)F)c1C(=O)NC1CC1 [Example 1-273] | – | – | 90% | – | 100% | – | 100% | – | 90% | – | 80% | 80% | 100% | 90% | 100% | 100% | 90% | – | – |
| CCn1nnnc1NC(=O)c1ccc(C(F)(F)F)c(C(=O)NC2CC2)c1C [Example 2-27] | – | – | 100% | – | 100% | – | 100% | – | 100% | – | 90% | 80% | 90% | 100% | 100% | 100% | 100% | 80% | – |
| CCn1nnnc1NC(=O)c1ccc(C(F)(F)F)c(C(=O)NC)c1SC [Example 2-81] | 90% | 90% | 90% | 90% | 100% | 100% | 100% | 100% | 90% | 90% | – | – | – | – | – | – | – | – | – |
| CCNC(=O)c1c(C(F)(F)F)ccc(C(=O)Nc2nnnn2CC)c1SC [Example 2-82] | – | 90% | 90% | 90% | 100% | 100% | 100% | 100% | 90% | 90% | – | – | – | – | – | – | – | – | – |
| CCNC(=O)c1c(C(F)F)ccc(C(=O)Nc2nnnn2CC)c1Cl [Example 2-148] | – | 90% | 90% | 90% | 100% | 100% | 100% | 100% | 90% | 90% | – | – | – | – | – | – | – | – | – |
| CCn1nnnc1NC(=O)c1ccc(Cl)c(C(=O)NC2CC2)c1Cl [Example 2-173] | – | – | 80% | – | 100% | – | 100% | – | 100% | – | 90% | 90% | 90% | – | 90% | 100% | 90% | – | 80% |
